Test results taken from patent US11458138B2 (Novartis AG, priority 2017, dated 2022).

These compounds were tested against Human LATS1 kinase domain protein (Homo sapiens (Human), UniProt O95835) (assay: LATS1 Biochemical Caliper Assay (Compound Examples 291-335)). Conditions: Caliper EZ Reader.
Protocol: The LATS1 biochemical Caliper assay was performed as following.
Human LATS1 kinase domain protein was purchased from Carnabio (catalogue number 01-123; lot 15CBS-0098D). Human LATS1, catalytic domain [589-1130(end) amino acids of accession number NP_004681.1] was co-expressed as N-terminal GST-fusion protein (90 kDa) with human His-tagged MOBKL1A [1-216(end) amino acids of accession number NP_775739.1] using baculovirus expression system. GST-LATS1 was purified by using glutathione sepharose chromatography. The substrate (Fluo-SGKtide; Peptide for LATS1; lot BS-41067) has the following sequence: 5-Fluo-Nva-[…]-amide (SEQ ID NO: 27) x TFA and was purchased from Biosyntan.
The reaction is performed in reaction buffer containing 50 mM Hepes pH 7,5; 0.02% Tween20; 0.02% BSA; 1 mM DTT; 10 uM Na3VO4 and 10 mM beta-Glycerolphosphat and fresh added 1 mM MgCl2 and qsp H2O.
The substrate solution (2× conc.) in Reaction Buffer contains 300 μM ATP and 4 μM Fluo-SGKtide.
The kinase solution (2× conc.) in Reaction Buffer contains 20 nM LATS1 kinase. 4.5 μL of 2× conc. Kinase solution, 50 nL of 1.8 mM compounds and 4.5 μL of substrate solution were added into 384-well plates black small volume from Greiner and incubated at 32° C. for 1 hour. 15 μL of stop buffer containing 100 mM Hepes pH 7,5; 5% DMSO; 0.1% Coating reagent; 10 mM EDTA and 0.02% Brij35 and qsp H2O to each well to terminate the reaction.
Substrates and products were electrophoretically separated using the microfluidic-based Caliper EZ Reader System (Caliper Life Sciences) using a 12 sipper chip (cat 760404). The separation takes place in Coating Buffer (idem Stop buffer) and containing 0.1% Coating reagent CR3 and 0.5% coating reagent CR8 (Perkin Elmer).
Plates were read using a LED with an excitation at 488 nm and a detection at 520 nm to 5 quantify the fluorescence intensity.

Sequence of Human LATS1 kinase domain protein (O95835 whole entry, looked up, the tested form may be a part): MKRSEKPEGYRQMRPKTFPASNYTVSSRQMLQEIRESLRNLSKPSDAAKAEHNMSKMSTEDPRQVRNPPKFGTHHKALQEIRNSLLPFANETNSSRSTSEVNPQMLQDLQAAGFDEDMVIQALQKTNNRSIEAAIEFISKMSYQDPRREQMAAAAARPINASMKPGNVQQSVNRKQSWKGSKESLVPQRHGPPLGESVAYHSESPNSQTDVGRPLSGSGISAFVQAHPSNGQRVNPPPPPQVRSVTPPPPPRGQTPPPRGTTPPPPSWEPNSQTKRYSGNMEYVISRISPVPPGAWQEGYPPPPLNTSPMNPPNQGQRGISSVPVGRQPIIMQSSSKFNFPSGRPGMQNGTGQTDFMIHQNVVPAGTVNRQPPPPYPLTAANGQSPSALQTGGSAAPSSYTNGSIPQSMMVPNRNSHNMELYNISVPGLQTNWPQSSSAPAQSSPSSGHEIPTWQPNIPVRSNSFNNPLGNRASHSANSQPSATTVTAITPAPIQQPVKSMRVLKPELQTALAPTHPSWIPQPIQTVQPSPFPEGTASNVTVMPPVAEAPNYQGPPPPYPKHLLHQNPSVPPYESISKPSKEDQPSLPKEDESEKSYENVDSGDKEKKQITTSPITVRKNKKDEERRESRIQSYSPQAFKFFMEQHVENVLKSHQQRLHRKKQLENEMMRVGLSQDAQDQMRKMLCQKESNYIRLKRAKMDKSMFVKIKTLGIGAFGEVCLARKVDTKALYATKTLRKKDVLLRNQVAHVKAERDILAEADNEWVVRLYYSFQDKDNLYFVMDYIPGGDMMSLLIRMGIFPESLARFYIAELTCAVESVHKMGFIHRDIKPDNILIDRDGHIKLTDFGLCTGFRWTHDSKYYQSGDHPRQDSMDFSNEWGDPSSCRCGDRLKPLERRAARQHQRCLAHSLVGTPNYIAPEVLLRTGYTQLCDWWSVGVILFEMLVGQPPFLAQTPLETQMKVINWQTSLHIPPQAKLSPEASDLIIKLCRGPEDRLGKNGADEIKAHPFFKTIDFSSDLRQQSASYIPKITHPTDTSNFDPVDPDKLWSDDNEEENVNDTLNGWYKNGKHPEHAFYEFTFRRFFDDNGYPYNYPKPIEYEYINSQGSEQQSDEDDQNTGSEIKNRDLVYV
Sequence of Human LATS1 kinase domain protein (Q7L9L4 whole entry partner, looked up, the tested form may be a part): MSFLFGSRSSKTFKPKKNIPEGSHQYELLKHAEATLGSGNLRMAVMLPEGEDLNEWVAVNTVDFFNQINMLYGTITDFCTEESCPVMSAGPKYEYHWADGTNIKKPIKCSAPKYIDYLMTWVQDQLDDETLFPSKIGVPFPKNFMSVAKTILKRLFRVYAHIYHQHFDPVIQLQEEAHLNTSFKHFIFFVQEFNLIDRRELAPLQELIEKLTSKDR

Row | SMILES | IC50
1 | CC(C)(N)CNc1nc(-c2ccncc2)nc2cnccc12 [Example 312, 2-methyl-N^1-(2-(pyridin-4-yl)pyrido[3,4-d]pyrimidin-4-yl)propane-1,2-diamine] | 2.4 nM
2 | c1cc(-c2cc(N3CCNCC3)c3ccncc3n2)ccn1 [Example 292, 4-(piperazin-1-yl)-2-(pyridin-4-yl)-1,7-naphthyridine] | 43.3 nM
3 | CC(C)(N)C(C)(C)Nc1nc(-c2ccncc2)nc2cnccc12 [Example 320, 2,3-dimethyl-N^2-(2-(pyridin-4-yl)pyrido[3,4-d]pyrimidin-4-yl)butane-2,3-diamine] | 0.7 nM
4 | CC1(Nc2cc(-c3ccncn3)nc3cnccc23)CCC1 [Example 307, N-(1-methylcyclobutyl)-2-(pyrimidin-4-yl)-1,7-naphthyridin-4-amine] | 1.9 nM
5 | CN(CCC(C)(C)N)c1nc(-c2ccncc2)nc2cnccc12 [Example 315, N^1,3-dimethyl-N^1-(2-(pyridin-4-yl)pyrido[3,4-d]pyrimidin-4-yl)butane-1,3-diamine] | 5 nM
6 | FC(F)(F)C1(Nc2cc(-c3ccncc3)nc3cnccc23)CCC1 [Example 294, 2-(pyridin-4-yl)-N-(1-(trifluoromethyl)cyclobutyl)-1,7-naphthyridin-4-amine] | 4.5 nM
7 | CCOC(=O)C(C)(C)Nc1nc(-c2ccncc2)nc2cnccc12 [Example 322, ethyl 2-methyl-2-((2-(pyridin-4-yl)pyrido[3,4-d]pyrimidin-4-yl)amino)propanoate] | 29.2 nM
8 | CC1(Nc2cc(-c3ccncc3)nc3cnccc23)CC1 [Example 297, N-(1-methylcycloropyl)-2-(pyridin-4-yl)-1,7-naphthyridin-4-amine] | 7.5 nM
9 | C[C@](O)(CNc1cc(-c2ccncc2)nc2cnccc12)C(F)(F)F [Example 327, (S)-1,1,1-trifluoro-2-methyl-3-((2-(pyridin-4-yl)-1,7-naphthyridin-4-yl)amino)propan-2-ol] | 125 nM
10 | FC(F)(F)[C@@H]1CN(c2nc(-c3ccncc3)nc3cnccc23)CCN1 [Example 321, (S)-2-(pyridin-4-yl)-4-(3-(trifluoromethyl)piperazin-1-yl)pyrido[3,4-d]pyrimidine] | 3.8 nM
11 | FC(F)(F)[C@H]1CN(c2cc(-c3ccncc3)nc3cnccc23)CCN1 [Example 305, (R)-2-(pyridin-4-yl)-4-(3-(trifluoromethyl)piperazin-1-yl)-1,7-naphthyridine] | 663 nM
12 | CN(C)C(C)(C)CNc1cc(-c2ccncc2)nc2cnccc12 [Example 302, N^2,N^2,2-trimethyl-N^1-(2-(pyridin-4-yl)-1,7-naphthyridin-4-yl)propane-1,2-diamine] | 59.5 nM
13 | CN(C)CCC(C)(C)Nc1nc(-c2ccnc(F)c2)nc2cnccc12 [Example 331, N^3-(2-(2-fluoropyridin-4-yl)pyrido[3,4-d]pyrimidin-4-yl)-N^1,N^1,3-trimethylbutane-1,3-diamine] | 10.5 nM
14 | CN(C)CC(C)(C)CN(C)c1nc(-c2ccncc2)nc2cnccc12 [Example 329, N^1,N^1,N^3,2,2-pentamethyl-N^3-(2-(pyridin-4-yl)pyrido[3,4-d]pyrimidin-4-yl)propane-1,3-diamine] | 3 nM
15 | c1cc(-c2cc(NC3COC3)c3ccncc3n2)ccn1 [Example 296, N-(oxetan-3-yl)-2-(pyridin-4-yl)-1,7-naphthyridin-4-amine] | 209 nM
16 | CN(C)CC(C)(C)CNc1nc(-c2ccncc2)nc2cnccc12 [Example 323, N^1,N^1,2,2-tetramethyl-N^3-(2-(pyridin-4-yl)pyrido[3,4-d]pyrimidin-4-yl)propane-1,3-diamine] | 4.5 nM

Row | SMILES | IC50
17 | Cc1n[nH]c(C)c1-c1nc(NC(C)(C)CCN(C)C)c2ccncc2n1 [Example 332, N^3-(2-(3,5-dimethyl-1H-pyrazol-4-yl)pyrido[3,4-d]pyrimidin-4-yl)-N^1,N^1,3-trimethylbutane-1,3-diamine] | 7.6 nM
18 | CC(C)(Nc1nc(-c2ccncc2)nc2cnccc12)C(N)=O [Example 326, 2-methyl-2-((2-(pyridin-4-yl)pyrido[3,4-d]pyrimidin-4-yl)amino)propanamide] | 57.2 nM
19 | CC(C)(C)Nc1nc(-c2nonc2N)nc2cnccc12 [Example 324, 4-(4-(tert-butylamino)pyrido[3,4-d]pyrimidin-2-yl)-1,2,5-oxadiazol-3-amine] | 10.4 nM
20 | CC1(C)CN(c2cc(-c3ccncc3)nc3cnccc23)CCO1 [Example 299, 2,2-dimethyl-4-(2-(pyridin-4-yl)-1,7-naphthyridin-4-yl)morpholine] | 97.1 nM
21 | CC(C)(CCNC(=O)OC(C)(C)C)Nc1nc(-c2ccncc2)nc2cnccc12 [Example 328, tert-butyl (3-methyl-3-((2-(pyridin-4-yl)pyrido[3,4-d]pyrimidin-4-yl)amino)butyl)carbamate] | 18.9 nM
22 | CC1CCCCN1c1cc(-c2ccncc2)nc2cnccc12 (centres unmarked) [Example 293, 4-(2-methylpiperidin-1-yl)-2-(pyridin-4-yl)-1,7-naphthyridine] | 16 nM
23 | CC(C)(CNc1nc(-c2ccncc2)nc2cnccc12)NC(=O)OC(C)(C)C [Example 310, tert-butyl (2-methyl-1-((2-(pyridin-4-yl)pyrido[3,4-d]pyrimidin-4-yl)amino)propan-2-yl)carbamate] | 164 nM
24 | CCN(CC)CCC(C)(C)Nc1nc(-c2ccncc2)nc2cnccc12 [Example 330, N,N-diethyl-3-methyl-N^3-(2-(pyridin-4-yl)pyrido[3,4-d]pyrimidin-4-yl)butane-1,3-diamine] | 3.1 nM
25 | CN(C)CCC(C)(C)Nc1nc(-c2ccnc(N)c2)nc2cnccc12 [Example 334, N^3-(2-(2-aminopyridin-4-yl)pyrido[3,4-d]pyrimidin-4-yl)-N^1,N^1,3-trimethylbutane-1,3-diamine] | 6.1 nM
26 | CN1CCN(c2cc(-c3ccncc3)nc3cnccc23)CC1 [Example 291, 4-(4-methylpiperazin-1-yl)-2-(pyridin-4-yl)-1,7-naphthyridine] | 457 nM
27 | CC1(C)CN(c2cc(-c3ccncc3)nc3cnccc23)CCN1 [Example 298, 4-(3,3-dimethylpiperazin-1-yl)-2-(pyridin-4-yl)-1,7-naphthyridine] | 59 nM
28 | CN(C)CCC(C)(C)Nc1nc(-c2c[nH]nc2C(F)(F)F)nc2cnccc12 [Example 333, N^1,N,3-trimethyl-N^3-(2-(3-(trifluoromethyl)-1H-pyrazol-4-yl)pyrido[3,4-d]pyrimidin-4-yl)butane-1,3-diamine] | 2.3 nM
29 | CN(C)C(=O)C(C)(C)Nc1nc(-c2ccncc2)nc2cnccc12 [Example 314, N,N,2-trimethyl-2-((2-(pyridin-4-yl)pyrido[3,4-d]pyrimidin-4-yl)amino)propanamide] | 467 nM
30 | CN(C)C(C)(C)CNc1nc(-c2ccncc2)nc2cnccc12 [Example 325, N^2,N^2,2-trimethyl-N^1-(2-(pyridin-4-yl)pyrido[3,4-d]pyrimidin-4-yl)propane-1,2-diamine] | 3.7 nM
31 | CC(C)(C)OC(=O)NCCNc1nc(-c2ccncc2)nc2cnccc12 [Example 311, tert-butyl (2-((2-(pyridin-4-yl)pyrido[3,4-d]pyrimidin-4-yl)amino)ethyl)carbamate] | 1030 nM
32 | CC(C)(CNC(=O)OC(C)(C)C)CNc1nc(-c2ccncc2)nc2cnccc12 [Example 316, tert-butyl (2,2-dimethyl-3-((2-(pyridin-4-yl)pyrido[3,4-d]pyrimidin-4-yl)amino)propyl)carbamate] | 42.5 nM

These compounds were tested on Phospho-YAP (Ser127) in JHH-5 cells (assay: pYAP HTRF Assay (JHH-5 cells)). Conditions: 2 hours.
Type: cell-based
Protocol: Briefly, JHH-5 cells are suspended at 0.48×10^6 cells/ml in William's E medium without phenol-red (Thermo Fisher Scientific Gibco catalog number A1217601) supplemented with 10% (v/v) heat-inactivated fetal bovine serum (Thermo Fisher Scientific Gibco catalog number 16140071) and penicillin-streptomycin at 100 U/ml each (Thermo Fisher Scientific Gibco catalog number 15140122). Cells are dispensed into 384well clear bottom culture plates (50 ul/well, at 24000 cells per well, Greiner catalog number 781091), and incubated for 24 hours in a cell culture incubator at 37° C. Test compounds are transferred into culture plates containing JHH-5 cells using an Echo550 (Labcyte) acoustic dispenser (50 nl/well), followed by incubation for 2 hours at 37° C. Lysis buffer (part of CisBio kit catalog number 64YAPPEI) is added to the assay plates as a four-fold concentrate (corresponding to 16 ul/well) and incubated for 30 minutes at room temperature with agitation. Lysate is transferred from culture plates into white low-volume 384well assay plates (12 ul/well, Greiner catalog number 784075), followed by the addition of 3 ul/well of detection antibodies (part of CisBio kit catalog number 64YAPPEI: 1:40 dilution of each pYAP d2 antibody and pYAP cryptate antibody stocks). The plates are sealed and incubated overnight (18 hours) at room temperature protected from light. Plates are read on an EnVision plate reader (Perkin Elmer) at emission wavelengths of 665 nm and 620 nm. The HTRF signal ratio x per well is calculated as [x=Signal(665 nm)/Signal(620 nm)×10000] as specified in the manufacturer's protocol.

Row | SMILES | IC50
33 | CC(C)(N)CNc1nc(-c2ccncc2)nc2cnccc12 [Example 312, 2-methyl-N^1-(2-(pyridin-4-yl)pyrido[3,4-d]pyrimidin-4-yl)propane-1,2-diamine] | 7700 nM
34 | CC(C)(N)C(C)(C)Nc1nc(-c2ccncc2)nc2cnccc12 [Example 320, 2,3-dimethyl-N^2-(2-(pyridin-4-yl)pyrido[3,4-d]pyrimidin-4-yl)butane-2,3-diamine] | 1000 nM
35 | CC1(Nc2cc(-c3ccncn3)nc3cnccc23)CCC1 [Example 307, N-(1-methylcyclobutyl)-2-(pyrimidin-4-yl)-1,7-naphthyridin-4-amine] | 1300 nM
36 | CN(CCC(C)(C)N)c1nc(-c2ccncc2)nc2cnccc12 [Example 315, N^1,3-dimethyl-N^1-(2-(pyridin-4-yl)pyrido[3,4-d]pyrimidin-4-yl)butane-1,3-diamine] | 5700 nM
37 | FC(F)(F)C1(Nc2cc(-c3ccncc3)nc3cnccc23)CCC1 [Example 294, 2-(pyridin-4-yl)-N-(1-(trifluoromethyl)cyclobutyl)-1,7-naphthyridin-4-amine] | 1100 nM
38 | CC1(Nc2cc(-c3ccncc3)nc3cnccc23)CC1 [Example 297, N-(1-methylcycloropyl)-2-(pyridin-4-yl)-1,7-naphthyridin-4-amine] | > 10000 nM
